In the C3SDB collision cross section collection:

Conditions: [M+H]+; instrument: TW

Compound | collision cross section (N2)
CC(C)(C)[C@H](O)[C@H](Cc1ccc(Cl)cc1)n1cncn1 (racemic) [Paclobutrazol] | 168.73 Å²
O=C\1\C=C/[C@]3(/C(=C/1)CC[C@H]4[C@@H]2CCC(=O)[C@]2(CC[C@H]34)C)C [1,4-androstadiene-3,17-dione] | 166.5 Å²
C[C@]12Cc3cn[nH]c3C[C@@H]1CC[C@@H]1[C@@H]2CC[C@@]2(C)[C@H]1C[C@H](O)[C@]2(C)O [16B-hydroxystanozolol] | 192.1 Å²
C[C@]12CCC(=O)C=C1CC[C@@H]1[C@@H]2CC[C@@]2(C)[C@H]1CC[C@]2(C)O [17a-Methyltestosterone] | 173.7 Å²
C/C(=N\C#N)N(C)Cc1ccc(Cl)nc1 [Acetamiprid] | 150.24 Å²
CC(=O)c1ccc2c(c1)N(CCCN(C)C)c1ccccc1S2 [Acetopromazine] | 160.5 Å²
C[C@H]1C[C@H]2[C@@H]3CCC4=CC(=O)C=C[C@]4(C)[C@@]3(Cl)[C@@H](O)C[C@]2(C)[C@@]1(O)C(=O)CO [Beclomethasone] | 189.2 Å²
CC(C)N1C(=O)N(c2ccccc2)CS/C1=N\C(C)(C)C [Buprofezin] | 173.58 Å²
CC1=C(C(=O)Nc2ccccc2)SCCO1 [Carboxin] | 149.35 Å²
CC(C(=O)O)c1ccc2c(c1)[nH]c1ccc(Cl)cc12 (stereo unspecified) [Carprofen] | 156.1 Å²
Nc1cnn(-c2ccccc2)c(=O)c1Cl [Chloridazon] | 141.59 Å²
CN(C)C(=O)Nc1ccc(Oc2ccc(Cl)cc2)cc1 [Chloroxuron] | 172.24 Å²
CN(C)CCCN1c2ccccc2Sc2ccc(Cl)cc21 [Chlorpromazine] | 169.1 Å²
CN(C)[C@@H]1C(O)=C(C(=N)O)C(=O)[C@@]2(O)C(O)=C3C(=O)c4c(O)ccc(Cl)c4[C@@](C)(O)[C@H]3C[C@@H]12 [Chlortetracycline] | 203.9 Å²
Cc1ccc(/N=C(/O)N(C)C)cc1Cl [Chlortoluron] | 145.96 Å²
CC(C)(C)NCC(O)c1cc(Cl)c(N)c(Cl)c1 (stereo unspecified) [Clenbuterol] | 159.2 Å²
Cc1ccc(-c2c(Cl)nc(C#N)n2S(=O)(=O)N(C)C)cc1 [Cyazofamid] | 166.69 Å²
CCN(CC)C(=O)c1cccc(C)c1 [DEET] | 142.48 Å²
COc1ccc(/C(=C/C(=O)N2CCOCC2)c2ccc(Cl)cc2)cc1OC [Dimethomorph I] | 199.03 Å²
CCCCc1c(C)nc(NCC)[nH]c1=O [Ethirimol] | 150.65 Å²
CCCSP(=O)(OCC)SCCC [Ethoprophos] | 149.27 Å²

Compound | collision cross section (N2)
N#CC(CCc1ccc(Cl)cc1)(Cn1cncn1)c1ccccc1 (stereo unspecified) [Fenbuconazole] | 182.44 Å²
Cc1nn(C)c(Oc2ccccc2)c1/C=N/OCc1ccc(C(=O)OC(C)(C)C)cc1 [Fenpyroximate] | 215.89 Å²
N#Cc1nn(-c2c(Cl)cc(C(F)(F)F)cc2Cl)c(N)c1S(=O)C(F)(F)F (stereo unspecified) [Fipronil] | 180.77 Å²
CC1(C)OC(=O)C(OCC2CC2)=C1c1ccc(S(C)(=O)=O)cc1 [Firocoxib] | 182.1 Å²
Nc1c(Cl)c(F)nc(OCC(=O)O)c1Cl [Fluroxypyr] | 140.69 Å²
CCCCOC(=O)N(C)SN(C)C(=O)Oc1cccc2c1OC(C)(C)C2 [Furathiocarb] | 190.73 Å²
O=C(CCCN1CCC(O)(c2ccc(Cl)cc2)CC1)c1ccc(F)cc1 [Haloperidol] | 193.9 Å²
CC1C(c2ccc(Cl)cc2)SC(=O)N1C(=O)NC1CCCCC1 (stereo unspecified) [Hexythiazox] | 183.83 Å²
O=[N+]([O-])c1cnc(CO)n1CCO [Hydroxymetronidazole] | 128.2 Å²
C=CCOC(Cn1ccnc1)c1ccc(Cl)cc1Cl (stereo unspecified) [Imazalil] | 164.99 Å²
O=[N+]([O-])/N=C1\NCCN1Cc1ccc(Cl)nc1 [Imidacloprid] | 149.62 Å²
CO[C@@H]1[C@@H](O[C@@H]2O[C@H](C)[C@@H](O[C@H]3C[C@@](C)(O)[C@@H](OC(=O)CC(C)C)[C@H](C)O3)[C@H](N(C)C)[C@H]2O)[C@@H](CC=O)C[C@@H](C)[C@@H](O)/C=C/C=C/C[C@@H](C)OC(=O)C[C@H]1OC(C)=O [Josamycin] | 306.8 Å²
CN1CCN(c2c(F)cc3c(=O)c(C(=O)O)cn4c3c2OCN4C)CC1 [Marbofloxacin] | 179.6 Å²
Cc1cccc(Nc2ccccc2C(=O)O)c1C [Mefenamic acid] | 150.5 Å²
Cc1nnc(-c2ccccc2)c(=O)n1N [Metamitron] | 140.93 Å²
CNC(=O)N(C)c1nc2ccccc2s1 [Methabenzthiazuron] | 142.47 Å²
CON(C)C(=O)Nc1ccc(Br)cc1 [Metobromuron] | 145.41 Å²
Cc1ncc([N+](=O)[O-])n1CCO [Metronidazole] | 124.2 Å²
O=C(O)\C2=C\N(c1cc(c(F)cc1C2=O)N3CCNCC3)CC [Norfloxacine] | 171 Å²
O=C(NC(=O)c1c(F)cccc1F)Nc1ccc(OC(F)(F)C(F)OC(F)(F)F)c(Cl)c1 (stereo unspecified) [Novaluron] | 196.35 Å²
C/N=C(/O)CSP(=O)(OC)OC [Omethoate] | 134.62 Å²

Compound | collision cross section (N2)
CCOP(=O)(OCC)Oc1ccc([N+](=O)[O-])cc1 [Paraoxon-ethyl] | 156.76 Å²
O=C(Nc1ccccc1)N(Cc1ccc(Cl)cc1)C1CCCC1 [Pencycuron] | 179.71 Å²
Cc1nc(N(C)C)nc(OC(=O)N(C)C)c1C [Pirimicarb] | 154.68 Å²
CN1C(/C(O)=N/c2ccccn2)=C(O)c2ccccc2S1(=O)=O [Piroxicam] | 170.9 Å²
O=C2\C(=C(/N(N2c1ccccc1)C)C)C(C)C [Propyphenazone] | 150 Å²
CCCN(CCC)C(=O)SCc1ccccc1 [Prosulfocarb] | 156.95 Å²
COc1nc(C)nc(NC(=O)NS(=O)(=O)c2ccccc2CCC(F)(F)F)n1 [Prosulfuron] | 187.01 Å²
COC(=O)N(OC)c1ccccc1COc1ccn(-c2ccc(Cl)cc2)n1 [Pyraclostrobin] | 183.19 Å²
CN1CCCN=C1/C=C/c1cccs1 [Pyrantel] | 143 Å²
CC(COc1ccc(Oc2ccccc2)cc1)Oc1ccccn1 (stereo unspecified) [Pyriproxifen] | 182.76 Å²
C=C1C[C@@]23CC[C@H]4[C@@](C)(CCC[C@@]4(C)C(=O)O[C@@H]4O[C@H](CO)[C@@H](O)[C@H](O)[C@H]4O)[C@@H]2CC[C@]1(O[C@@H]1O[C@H](CO)[C@@H](O)[C@H](O[C@@H]2O[C@H](CO)[C@@H](O)[C@H](O)[C@H]2O)[C@H]1O[C@@H]1O[C@H](CO)[C@@H](O)[C@H](O)[C@H]1O)C3 [Rebaudioside A] | 299.48 Å²
Fc1ccc(cc1)N\3c2cc(c(F)cc2C(=O)C(/C(=O)O)=C/3)N4CCNCC4 [Sarafloxacine] | 202 Å²
CCNc1nc(Cl)nc(NCC)n1 [Simazine] | 142.09 Å²
C[C@]12Cc3cn[nH]c3C[C@@H]1CC[C@@H]1[C@@H]2CC[C@@]2(C)[C@H]1CC[C@]2(C)O [Stanozolol] | 185.2 Å²
C=C1C[C@@]23CC[C@H]4[C@@](C)(CCC[C@@]4(C)C(=O)O)[C@@H]2CC[C@]1(O[C@@H]1O[C@H](CO)[C@@H](O)[C@H](O)[C@H]1O[C@@H]1O[C@H](CO)[C@@H](O)[C@H](O)[C@H]1O)C3 [Steviolbioside] | 235.78 Å²
Cc1ccnc(NS(=O)(=O)c2ccc(N)cc2)n1 [Sulfamerazine] | 154.8 Å²
Cc1cc(NS(=O)(=O)c2ccc(N)cc2)no1 [Sulfamethoxazole] | 146.3 Å²
Nc1ccc(S(=O)(=O)Nc2ccccn2)cc1 [Sulfapyridine] | 142.3 Å²
Nc1ccc(S(=O)(=O)Nc2cnc3ccccc3n2)cc1 [Sulfaquinoxaline] | 164.8 Å²
O=C(NC(=O)c1c(F)cccc1F)Nc1cc(Cl)c(F)c(Cl)c1F [Teflubenzuron] | 171.81 Å²
CC/C(=N\OC/C=C/Cl)C1=C(O)CC(C2CCOCC2)CC1=O (stereo unspecified) [Tepraloxydim] | 184.74 Å²

Conditions: [M+HCOO]-; instrument: DT; single field, calibrated with Agilent tune mix (Agilent)

collision cross section (N2) | Compound
300.8 Å² | CCCCCCCCCCCCCCCCCCCCCCCC(=O)N[C@@H](CO[C@@H]1O[C@H](CO)[C@@H](O)C(O)C1O)[C@H](O)CCCCCCCCCCCCCCC (stereo partly specified) [GlcCer(42:0)]
298.5 Å² | CCCCCCCCCCCCC=CC[C@@H](O)[C@H](CO[C@@H]1O[C@H](CO)[C@@H](O)C(O)C1O)NC(=O)CC=CCCCCCCCCCCCCCCCCCCCC (stereo partly specified) [GlcCer(42:2)]

Same assay, conditions: [M+H]+; instrument: DT; single field, calibrated with Agilent tune mix (Agilent)

collision cross section (N2) | Compound
283.4 Å² | CCCCCCCCCCCCC=CC[C@@H](O)[C@H](CO[C@@H]1O[C@H](CO)[C@@H](O)C(O)C1O)NC(=O)CC=CCCCCCCCCCCCCCC (stereo partly specified) [GlcCer(36:2)]
300.9 Å² | CCCCCCCCCCCCC=CC[C@@H](O)[C@H](CO[C@@H]1O[C@H](CO)[C@@H](O)C(O)C1O)NC(=O)CC=CCCCCCCCCCCCCCCCCCCCC (stereo partly specified) [GlcCer(42:2)]
284.2 Å² | CCCC/C=C\C/C=C\CCCCCCCC(=O)O[C@H](COC(=O)CCCCCCC/C=C\CCCCCCCC)COP(=O)([O-])OCC[N+](C)(C)C [PC(35:3)]
276.6 Å² | CCCCCCCCCC/C=C\CCCCCCCCCC(=O)O[C@H](COC(=O)CCCCCCCCCCCC)COP(=O)(O)OCCN [PE(35:1)]

Same assay, conditions: [M+Na]+; instrument: DT; single field, calibrated with Agilent tune mix (Agilent)

collision cross section (N2) | Compound
300.4 Å² | CCCCCCCCCCCCC=CC[C@@H](O)[C@H](CO[C@@H]1O[C@H](CO)[C@@H](O)C(O)C1O)NC(=O)CC=CCCCCCCCCCCCCCCCCCCCC (stereo partly specified) [GlcCer(42:2)]

Conditions: [M+K]+; instrument: DT; stepped-field

collision cross section (N2) | Compound
296.1 Å² | CCCC/C=C\C/C=C\CCCCCCCC(=O)O[C@H](COC(=O)CCCCCCC/C=C\CCCCCCCC)COP(=O)([O-])OCC[N+](C)(C)C [PC(35:3)]
283.6 Å² | CCCCCCCCCC/C=C\CCCCCCCCCC(=O)O[C@H](COC(=O)CCCCCCCCCCCC)COP(=O)(O)OCCN [PE(35:1)]

Same assay, conditions: [M+Na]+; instrument: DT; stepped-field

collision cross section (N2) | Compound
282.6 Å² | CCCCCCCCCCCCC=CC[C@@H](O)[C@H](CO[C@@H]1O[C@H](CO)[C@@H](O)C(O)C1O)NC(=O)CC=CCCCCCCCCCCCCCC (stereo partly specified) [GlcCer(36:2)]
308.2 Å² | CCCCCCCCCCCCCCCCCCCCCCCC(=O)N[C@@H](CO[C@@H]1O[C@H](CO)[C@@H](O)C(O)C1O)[C@H](O)CCCCCCCCCCCCCCC (stereo partly specified) [GlcCer(42:0)]
305.2 Å² | CCCCCCCCCCCCC=CC[C@@H](O)[C@H](CO[C@@H]1O[C@H](CO)[C@@H](O)C(O)C1O)NC(=O)CC=CCCCCCCCCCCCCCCCCCCCC (stereo partly specified) [GlcCer(42:2)]
282.9 Å² | CCCCCCCCCC/C=C\CCCCCCCCCC(=O)O[C@H](COC(=O)CCCCCCCCCCCC)COP(=O)(O)OCCN [PE(35:1)]
